These are literature values, as cited in US7615533B2, “TPO peptide compounds for treatment of anemia” (Janssen Pharmaceutica N.V., priority 2004, dated 2009).

The subject of this series is rhesus monkeys exposed to 5 Gy total body irradiation. The note with it: 5 Gy total body irradiation (300-kV x-rays); cited from earlier work.

Regarding “human recombinant TPO: human recombinant thrombopoietin, glycoprotein; comparator in the reporter assay and cited in the background”, the “reticulocyte regeneration initiated earlier than in placebo-treated animals” value is given as 10 days.
